These compounds were tested against T1, human mGlu2 receptor (Homo sapiens, UniProt Q14416) (assay: FLIPR intracellular Ca2+ assay, potentiation of glutamate response in HEK293 clone expressing mGlu2 receptor, rGLAST and Galpha16). Conditions: 1 μM glutamate added ten minutes after test compound, HEK293 cells with human mGlu2, rGLAST, Galpha16, read-out: EC50 values of potentiation effect to glutamate.
T1 construct: expressed in transfected cells; host or cells: HEK293
Format: cell-based
How it was run: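 HEK293 cells stably expressing human mGlu2, rat GLAST and Gα16 were loaded with 2 µM Fluo-4 AM and intracellular Ca2+ read by FLIPR. Compound added alone (agonism), then with submaximal glutamate (e.g. 1 µM; potentiation). Background-subtracted peaks normalized to 100 µM glutamate response; EC50 from four-parameter fit.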

T1 sequence (Q14416 19-872): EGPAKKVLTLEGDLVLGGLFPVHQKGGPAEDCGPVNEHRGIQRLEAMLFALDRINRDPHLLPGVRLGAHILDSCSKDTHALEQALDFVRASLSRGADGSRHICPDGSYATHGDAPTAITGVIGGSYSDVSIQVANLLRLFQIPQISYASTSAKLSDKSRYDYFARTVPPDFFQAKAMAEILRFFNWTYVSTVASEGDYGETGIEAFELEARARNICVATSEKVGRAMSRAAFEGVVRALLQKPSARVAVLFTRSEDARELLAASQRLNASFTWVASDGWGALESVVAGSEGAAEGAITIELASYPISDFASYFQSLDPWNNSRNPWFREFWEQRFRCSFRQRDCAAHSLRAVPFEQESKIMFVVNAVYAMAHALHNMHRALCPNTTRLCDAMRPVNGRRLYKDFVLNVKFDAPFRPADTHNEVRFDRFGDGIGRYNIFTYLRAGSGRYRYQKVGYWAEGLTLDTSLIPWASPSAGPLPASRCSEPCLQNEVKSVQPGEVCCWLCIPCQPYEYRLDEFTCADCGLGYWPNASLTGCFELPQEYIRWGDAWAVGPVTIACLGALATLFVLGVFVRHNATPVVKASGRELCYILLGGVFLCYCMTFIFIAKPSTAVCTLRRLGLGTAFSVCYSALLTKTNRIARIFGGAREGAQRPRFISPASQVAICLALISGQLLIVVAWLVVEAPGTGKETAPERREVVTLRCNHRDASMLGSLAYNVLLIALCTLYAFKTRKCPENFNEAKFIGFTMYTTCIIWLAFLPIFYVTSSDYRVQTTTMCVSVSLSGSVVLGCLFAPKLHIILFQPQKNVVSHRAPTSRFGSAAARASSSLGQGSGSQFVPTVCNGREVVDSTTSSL

SMILES	EC50 [µM]
CCCC(=O)c1ccc(NCc2n[nH]cc2Br)cc1 [Example 522]	1 to 10
CCCC(=O)c1ccc(NCc2c[nH]cc2-c2ccccc2)cc1 [Example 523, 1-{4-[(4-Phenyl-1H-pyrrol-3-ylmethyl)-amino]-phenyl}-butan-1-one]	1 to 10
CCCC(=O)c1ccc(NCc2ccncc2-c2ccccc2)cc1 [Example 524, 1-{4-[(3-Phenyl-pyridin-4-ylmethyl)-amino]-phenyl}-butan-1-one]	1 to 10
CCCC(=O)c1ccc(NCc2cccnc2-c2ccccc2)cc1 [Example 526, 1-{4-[(2-Phenyl-pyridin-3-ylmethyl)-amino]-phenyl}-butan-1-one]	1 to 10
CCCC(=O)c1ccc(NCc2cnn3ccccc23)cc1 [Example 529, 1-{4-[(Pyrazolo[1,5-a]pyridin-3-ylmethyl)-amino]-phenyl}-butan-1-one]	1 to 10
CCCCN1Cc2cc(OCc3c[nH]nc3-c3cccc(Cl)c3)ccc2C1=O [Example 549, 2-Butyl-5-[3-(3-chloro-phenyl)-1H-pyrazol-4-ylmethoxy]-2,3-dihydro-isoindol-1-one]	< 1
CCCCN1Cc2cc(OCc3c[nH]nc3-c3cccc(F)c3)ccc2C1=O [Example 550, 2-Butyl-5-[3-(3-fluorophenyl)-1H-pyrazol-4-ylmethoxy]-2,3-dihydro-isoindol-1-one]	< 1
CCCCN1Cc2cc(OCc3c[nH]nc3-c3ccccc3)ccc2C1=O [Example 551, 2-Butyl-5-(3-phenyl-1H-pyrazol-4-ylmethoxy)-2,3-dihydro-isoindol-1-one]	< 1
O=C1c2ccc(OCc3c[nH]nc3-c3ccc(C(F)(F)F)cc3)cc2CN1CCCC(F)(F)F [Example 552, 2-(4,4,4-Trifluoro-butyl)-5-[3-(4-trifluoromethyl-phenyl)-1H-pyrazol-4-ylmethoxy]-2,3-dihydro-isoindol-1-one]	< 1
O=C1c2ccc(OCc3c[nH]nc3-c3ccccc3)cc2CN1CCCC(F)(F)F [Example 553, 5-(3-Phenyl-1H-pyrazol-4-ylmethoxy)-2-(4,4,4-trifluoro-butyl)-2,3-dihydro-isoindol-1-one]	< 1
O=C1c2ccc(OCc3c[nH]nc3-c3ccc(Cl)c(Cl)c3)cc2CN1CCCC(F)(F)F [Example 554, 5-[3-(3,4-dichloro-phenyl)-1H-pyrazol-4-ylmethoxy]-2-(4,4,4-trifluoro-butyl)-2,3-dihydro-isoindol-1-one]	< 1
CCN1Cc2cc(OCc3c[nH]nc3-c3cccc(C(F)(F)F)c3)ccc2C1=O [Example 558, 2-Ethyl-5-[3-(3-trifluoromethyl-phenyl)-1H-pyrazol-4-ylmethoxy]-2,3-dihydro-isoindol-1-one]	< 1
CCN1Cc2cc(OCc3c[nH]nc3-c3ccc(F)cc3)ccc2C1=O [Example 559, 2-Ethyl-5-[3-(4-fluorophenyl)-1H-pyrazol-4-ylmethoxy]-2,3-dihydro-isoindol-1-one]	< 1
CCN1Cc2cc(OCc3c[nH]nc3-c3cccc(F)c3)ccc2C1=O [Example 560, 2-Ethyl-5-[3-(3-fluorophenyl)-1H-pyrazol-4-ylmethoxy]-2,3-dihydro-isoindol-1-one]	< 1
CCN1Cc2cc(OCc3c[nH]nc3-c3ccc(Cl)cc3)ccc2C1=O [Example 562, 5-[3-(4-Chloro-phenyl)-1H-pyrazol-4-ylmethoxy]-2-ethyl-2,3-dihydro-isoindol-1-one]	< 1
CCN1Cc2cc(OCc3c[nH]nc3-c3ccccc3)ccc2C1=O [Example 563, 2-Ethyl-5-(3-phenyl-1H-pyrazol-4-ylmethoxy)-2,3-dihydro-isoindol-1-one]	< 1
O=C1c2ccc(OCc3c[nH]nc3-c3ccc(C(F)(F)F)cc3)cc2CN1CCBr [Example 564, 2-(2-Bromo-ethyl)-5-[3-(4-trifluoromethyl-phenyl)-1H-pyrazol-4-ylmethoxy]-2,3-dihydro-isoindol-1-one]	< 1
O=C1c2ccc(OCc3c[nH]nc3-c3cccc(C(F)(F)F)c3)cc2CN1CCBr [Example 565, 2-(2-Bromo-ethyl)-5-[3-(3-trifluoromethyl-phenyl)-1H-pyrazol-4-ylmethoxy]-2,3-dihydro-isoindol-1-one]	< 1
O=C1c2ccc(OCc3c[nH]nc3-c3ccc(C(F)(F)F)cc3)cc2CN1CC(F)F [Example 566, 2-(2,2-Difluoro-ethyl)-5-[3-(4-trifluoromethyl-phenyl)-1H-pyrazol-4-ylmethoxy]-2,3-dihydro-isoindol-1-one]	< 1
O=C1c2ccc(OCc3c[nH]nc3-c3ccccc3)cc2CN1CC(F)F [Example 567, 2-(2,2-Difluoro-ethyl)-5-(3-phenyl-1H-pyrazol-4-ylmethoxy)-2,3-dihydro-isoindol-1-one]	< 1

More lines, now with the values ahead:

EC50 [µM]	SMILES
< 1	CCCC(=O)c1ccc(OCc2n[nH]cc2-c2ccc(CC)cc2)cc1 [Example 521, 1-{4-[4-(4-Ethyl-phenyl)-1H-pyrazol-3-ylmethoxy]-phenyl}-butan-1-one]
< 1	CCCC(=O)c1ccc(NCc2cnccc2-c2ccccc2)cc1 [Example 525, 1-{4-[(4-Phenyl-pyridin-3-ylmethyl)-amino]-phenyl}-butan-1-one]
< 1	CCCN1Cc2cc(OCc3c[nH]nc3-c3ccc(C(F)(F)F)cc3)ccc2C1=O [Example 531, 2-Propyl-5-[3-(4-trifluoromethyl-phenyl)-1H-pyrazol-4-ylmethoxy]-2,3-dihydro-isoindol-1-one]
< 1	CCCN1Cc2cc(OCc3c[nH]nc3-c3cccc(C(F)(F)F)c3)ccc2C1=O [Example 532, 2-Propyl-5-[3-(3-trifluoromethyl-phenyl)-1H-pyrazol-4-ylmethoxy]-2,3-dihydro-isoindol-1-one]
< 1	CCCN1Cc2cc(OCc3c[nH]nc3-c3ccc(F)cc3)ccc2C1=O [Example 533, 5-[3-(4-Fluorophenyl)-1H-pyrazol-4-ylmethoxy]-2-propyl-2,3-dihydro-isoindol-1-one]
< 1	CCCN1Cc2cc(OCc3c[nH]nc3-c3ccc(Cl)cc3)ccc2C1=O [Example 534, 5-[3-(4-Chloro-phenyl)-1H-pyrazol-4-ylmethoxy]-2-propyl-2,3-dihydro-isoindol-1-one]
< 1	CCCN1Cc2cc(OCc3c[nH]nc3-c3cccc(Cl)c3)ccc2C1=O [Example 535, 5-[3-(3-Chloro-phenyl)-1H-pyrazol-4-ylmethoxy]-2-propyl-2,3-dihydro-isoindol-1-one]
< 1	CCCN1Cc2cc(OCc3c[nH]nc3-c3cccc(F)c3)ccc2C1=O [Example 536, 5-[3-(3-Fluorophenyl)-1H-pyrazol-4-ylmethoxy]-2-propyl-2,3-dihydro-isoindol-1-one]
< 1	CCCN1Cc2cc(OCc3c[nH]nc3-c3ccccc3)ccc2C1=O [Example 537, 5-(3-Phenyl-1H-pyrazol-4-ylmethoxy)-2-propyl-2,3-dihydro-isoindol-1-one]
< 1	O=C1c2ccc(OCc3c[nH]nc3-c3cccc(C(F)(F)F)c3)cc2CN1CCC(F)(F)F [Example 538, 5-[3-(3-Trifluoromethyl-phenyl)-1H-pyrazol-4-ylmethoxy]-2-(3,3,3-trifluoro-propyl)-2,3-dihydro-isoindol-1-one]
< 1	O=C1c2ccc(OCc3c[nH]nc3-c3ccc(Cl)cc3)cc2CN1CCC(F)(F)F [Example 539, 5-[3-(4-Chloro-phenyl)-1H-pyrazol-4-ylmethoxy]-2-(3,3,3-trifluoro-propyl)-2,3-dihydro-isoindol-1-one]
< 1	O=C1c2ccc(OCc3c[nH]nc3-c3ccc(F)cc3)cc2CN1CCC(F)(F)F [Example 540, 5-[3-(4-Fluorophenyl)-1H-pyrazol-4-ylmethoxy]-2-(3,3,3-trifluoro-propyl)-2,3-dihydro-isoindol-1-one]
< 1	O=C1c2ccc(OCc3c[nH]nc3-c3cccc(F)c3)cc2CN1CCC(F)(F)F [Example 541, 5-[3-(3-Fluorophenyl)-1H-pyrazol-4-ylmethoxy]-2-(3,3,3-trifluoro-propyl)-2,3-dihydro-isoindol-1-one]
< 1	O=C1c2ccc(OCc3c[nH]nc3-c3ccc(C(F)(F)F)cc3)cc2CN1CCC(F)(F)F [Example 542, 5-[3-(4-Trifluoromethyl-phenyl)-1H-pyrazol-4-ylmethoxy]-2-(3,3,3-trifluoro-propyl)-2,3-dihydro-isoindol-1-one]
< 1	O=C1c2ccc(OCc3c[nH]nc3-c3ccccc3)cc2CN1CCC(F)(F)F [Example 543, 5-(3-Phenyl-1H-pyrazol-4-ylmethoxy)-2-(3,3,3-trifluoro-propyl)-2,3-dihydro-isoindol-1-one]
< 1	CCCCN1Cc2cc(OCc3c[nH]nc3-c3ccc(C(F)(F)F)cc3)ccc2C1=O [Example 544, 2-Butyl-5-[3-(4-trifluoromethyl-phenyl)-1H-pyrazol-4-ylmethoxy]-2,3-dihydro-isoindol-1-one]
< 1	CCCCN1Cc2cc(OCc3c[nH]nc3-c3cccc(C(F)(F)F)c3)ccc2C1=O [Example 545, 2-Butyl-5-[3-(3-trifluoromethyl-phenyl)-1H-pyrazol-4-ylmethoxy]-2,3-dihydro-isoindol-1-one]
< 1	CCCCN1Cc2cc(OCc3c[nH]nc3-c3ccc(Cl)cc3)ccc2C1=O [Example 546, 2-Butyl-5-[3-(4-chloro-phenyl)-1H-pyrazol-4-ylmethoxy]-2,3-dihydro-isoindol-1-one]
< 1	CCCCN1Cc2cc(OCc3c[nH]nc3-c3ccc(Cl)c(Cl)c3)ccc2C1=O [Example 547, 2-Butyl-5-[3-(3,4-dichloro-phenyl)-1H-pyrazol-4-ylmethoxy]-2,3-dihydro-isoindol-1-one]
< 1	CCCCN1Cc2cc(OCc3c[nH]nc3-c3ccc(F)cc3)ccc2C1=O [Example 548, 2-Butyl-5-[3-(4-fluorophenyl)-1H-pyrazol-4-ylmethoxy]-2,3-dihydro-isoindol-1-one]

Reference: US9242933B2 (AbbVie Deutschland GmbH & Co. KG, priority 2007, dated 2016)
